Assay results taken from patent US11142526B2, “Spirocycle compounds and methods of making and using same” (H. Lundbeck A/S, priority 2017, dated 2021).
pIC50: −log10 of the molar value.

Molecular target: MAGL (Mus musculus (Mouse), UniProt O35678)
Test: In vitro competitive activity-based protein profiling, mouse brain proteome
Format: biochemical
Details: for pIC50: mouse brain

Sequence of MAGL (O35678 whole entry): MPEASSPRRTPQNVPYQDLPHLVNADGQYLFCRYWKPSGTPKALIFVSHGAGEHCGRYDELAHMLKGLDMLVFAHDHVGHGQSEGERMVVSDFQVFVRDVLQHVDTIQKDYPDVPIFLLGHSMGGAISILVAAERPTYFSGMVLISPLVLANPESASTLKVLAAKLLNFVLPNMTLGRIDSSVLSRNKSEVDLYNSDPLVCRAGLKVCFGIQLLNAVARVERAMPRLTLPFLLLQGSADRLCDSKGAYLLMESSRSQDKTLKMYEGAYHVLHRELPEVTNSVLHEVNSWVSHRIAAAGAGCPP

| SMILES | inhibition at 1 µM (1 uM, mouse) | pIC50 | MAGL % Inhibition at 1 uM (Mouse) (1 uM, mouse) |
| --- | --- | --- | --- |
| O=C(OC(C(F)(F)F)C(F)(F)F)N1CCC2(CCCN2C(=O)c2ccc3[nH]ccc3c2)CC1 [Example 89, 1,1,1,3,3,3-Hexafluoropropan-2-yl 1-(1H-indole-5-carbonyl)-1,8-diazaspiro[4.5] decane-8-carboxylate] | > 75% | > 7.00 |  |
| O=C(OC(C(F)(F)F)C(F)(F)F)N1CCC2(CCCN2C(=O)c2cc3cc(F)ccc3s2)CC1 [Example 99, 1,1,1,3,3,3-Hexafluoropropan-2-yl 1-(5-fluorobenzo[b]thiophene-2-carbonyl)-1,8-diazaspiro[4.5] decane-8-carboxylate] | > 75% | > 7.00 |  |
| O=C(OC(C(F)(F)F)C(F)(F)F)N1CCC2(CCCN2C(=O)c2ccn(-c3ccccc3)n2)CC1 [Example 82, 1,1,1,3,3,3-Hexafluoropropan-2-yl 1-(1-phenyl-1H-pyrazole-3-carbonyl)-1,8-diazaspiro[4.5] decane-8-carboxylate] | > 75% | > 7.00 |  |
| O=C(OC(C(F)(F)F)C(F)(F)F)N1CCC2(CCCN2Cc2cc3c(Cl)cccc3s2)CC1 [Example 44, 1,1,1,3,3,3-Hexafluoropropan-2-yl 1-((4-chlorobenzo[b]thiophen-2-yl)methyl)-1,8-diazaspiro[4.5] decane-8-carboxylate] | > 75% | 6.00 to 7.00 |  |
| O=C(OC(C(F)(F)F)C(F)(F)F)N1CCC2(CCCN2C(=O)c2cc3ccccc3[nH]2)CC1 [Example 76, 1,1,1,3,3,3-Hexafluoropropan-2-yl 1-(1H-indole-2-carbonyl)-1,8-diazaspiro[4.5] decane-8-carboxylate] | > 75% | > 7.00 |  |
| CC(C)n1cc(CN2CCCC23CCN(C(=O)OC(C(F)(F)F)C(F)(F)F)CC3)c(-c2cccc(N3CCCC3)c2)n1 [Example 8, 1,1,1,3,3,3-Hexafluoropropan-2-yl 1-((1-isopropyl-3-(3-(pyrrolidin-1-yl)phenyl)-1H-pyrazol-4-yl)methyl)-1,8-diazaspiro[4.5]decane-8-carboxylate] |  | 6.00 to 7.00 | ### (% inhibition is greater than or equal to 75%) |
| O=C(OC(C(F)(F)F)C(F)(F)F)N1CCC2(CCCN2C(=O)c2ccc3sccc3c2)CC1 [Example 90, 1,1,1,3,3,3-Hexafluoropropan-2-yl 1-(benzo[b]thiophene-5-carbonyl)-1,8-diazaspiro[4.5] decane-8-carboxylate] | > 75% | > 7.00 |  |
| O=C(OC(C(F)(F)F)C(F)(F)F)N1CCC2(CCCN2C(=O)c2cc3cc(F)ccc3[nH]2)CC1 [Example 107, 1,1,1,3,3,3-Hexafluoropropan-2-yl 1-(5-fluoro-1H-indole-2-carbonyl)-1,8-diazaspiro[4.5] decane-8-carboxylate] | > 75% | > 7.00 |  |
| O=C(OC(C(F)(F)F)C(F)(F)F)N1CCC2(CCCN2C(=O)c2nc3ccccc3o2)CC1 [Example 84, 1,1,1,3,3,3-Hexafluoropropan-2-yl 1-(benzo[d]oxazole-2-carbonyl)-1,8-diazaspiro[4.5] decane-8-carboxylate] | > 75% | > 7.00 |  |
| Cc1ccc2cc(C(=O)N3CCCC34CCN(C(=O)OC(C(F)(F)F)C(F)(F)F)CC4)sc2c1 [Example 59, 1,1,1,3,3,3-Hexafluoropropan-2-yl 1-(6-methylbenzo[b]thiophene-2-carbonyl)-1,8-diazaspiro[4.5] decane-8-carboxylate] | > 75% |  |  |
| O=C(OC(C(F)(F)F)C(F)(F)F)N1CCC2(CCCN2C(=O)c2cc3cc(Cl)c(Cl)cc3[nH]2)CC1 [Example 111, 1,1,1,3,3,3-Hexafluoropropan-2-yl 1-(5,6-dichloro-1H-indole-2-carbonyl)-1,8-diazaspiro[4.5] decane-8-carboxylate] | > 75% | > 7.00 |  |
| Cc1c(C(=O)N2CCCC23CCN(C(=O)OC(C(F)(F)F)C(F)(F)F)CC3)sc2ccccc12 [Example 94, 1,1,1,3,3,3-Hexafluoropropan-2-yl 1-(3-methylbenzo[b]thiophene-2-carbonyl)-1,8-diazaspiro[4.5] decane-8-carboxylate] | > 75% | > 7.00 |  |
| Cn1cc(C(=O)N2CCCC23CCN(C(=O)OC(C(F)(F)F)C(F)(F)F)CC3)cn1 [Example 70, 1,1,1,3,3,3-Hexafluoropropan-2-yl 1-(1-methyl-1H-pyrazole-4-carbonyl)-1,8-diazaspiro[4.5] decane-8-carboxylate] | > 75% | 6.00 to 7.00 |  |
| O=C(OC(C(F)(F)F)C(F)(F)F)N1CCC2(CCCN2C(=O)c2cc3cc(C(F)(F)F)ccc3[nH]2)CC1 [Example 100, 1,1,1,3,3,3-Hexafluoropropan-2-yl 1-(5-(trifluoromethyl)-1H-indole-2-carbonyl)-1,8-diazaspiro[4.5] decane-8-carboxylate] | > 75% |  |  |
| CC(C)n1cc(CN2CCCC23CCN(C(=O)OC(C(F)(F)F)C(F)(F)F)CC3)c(-c2cc(Cl)cc(Cl)c2)n1 [Example 220, 1,1,1,3,3,3-Hexafluoropropan-2-yl 1-((3-(3,5-dichlorophenyl)-1-isopropyl-1H-pyrazol-4-yl)methyl)-1,8-diazaspiro[4.5]decane-8-carboxylate] | > 75% |  |  |
| O=C(OC(C(F)(F)F)C(F)(F)F)N1CCC2(CCCN2C(=O)c2cc3ccccc3s2)CC1 [Example 80, 1,1,1,3,3,3-Hexafluoropropan-2-yl 1-(benzo[b]thiophene-2-carbonyl)-1,8-diazaspiro[4.5] decane-8-carboxylate] | > 75% | > 7.00 |  |
| O=C(O)c1ccc2[nH]c(CN3CCCC34CCN(C(=O)OC(C(F)(F)F)C(F)(F)F)CC4)cc2c1 [Example 15, 2-((8-(((1,1,1,3,3,3-Hexafluoropropan-2-yl)oxy)carbonyl)-1,8-diazaspiro[4.5]decan-1-yl)methyl)-1H-indole-5-carboxylic acid] | 25 to 75% |  |  |
| O=C(OC(C(F)(F)F)C(F)(F)F)N1CCC2(CCN(Cc3nccs3)C2)CC1 [Example 66, 1,1,1,3,3,3-Hexafluoropropan-2-yl 2-(thiazol-2-ylmethyl)-2,8-diazaspiro [4.5]decane-8-carboxylate] | > 75% | > 7.00 |  |
| O=C(OC(C(F)(F)F)C(F)(F)F)N1CCC2(CCCN2Cc2ccc3cc(Cl)ccc3n2)CC1 [Example 55, 1,1,1,3,3.3-Hexafluoropropan-2-yl 1-((6-chloroquinolin-2-yl)methyl)-1,8-diazaspiro[4.5] decane-8-carboxylate] | > 75% | > 7.00 |  |
| O=C(OC(C(F)(F)F)C(F)(F)F)N1CCC2(CCCN2C(=O)c2cc3cccc(C(F)(F)F)c3s2)CC1 [Example 98, 1,1,1,3,3,3-Hexafluoropropan-2-yl 1-(7-(trifluoromethyl)benzo[b]thiophene-2-carbonyl)-1,8-diazaspiro[4.5] decane-8-carboxylate] | > 75% | > 7.00 |  |
| O=C(OC(C(F)(F)F)C(F)(F)F)N1CCC2(CCCN2C(=O)c2cnn(-c3ccc(Cl)cc3)c2)CC1 [Example 78, 1,1,1,3,3,3-Hexafluoropropan-2-yl 1-(1-(4-chlorophenyl)-1H-pyrazole-4-carbonyl)-1,8-diazaspiro[4.5] decane-8-carboxylate] | > 75% | > 7.00 |  |
